Source: patent publication US6344562B1, “Thiazole derivatives” (Hoffmann-La Roche Inc., priority 1998, dated 2002)

SMILES | melting point [°C]
CC(C)(C)OC(=O)C[C@H](NC(=O)CNC(=O)c1csc(NC(=O)NCc2ccccc2)n1)C(=O)NCc1ccccn1 [Example 161, tert-butyl (S)-3-[2-[[2-(3-benzyl-ureido)-thiazole-4-carbonyl]-amino]-acetylamino]-N-pyridin-2-ylmethyl-succinamate] | 108
CC(C)(C)OC(=O)C[C@H](NC(=O)CNC(=O)c1csc(NC(=O)NCc2ccccc2)n1)C(=O)NCc1cccnc1 [Example 163, tert-butyl (S)-3-[2-[[2-(3-benzyl-ureido)-thiazole-4-carbonyl]-amino]-acetylamino]-N-pyridin-3-ylmethyl-succinamate] | 185
CC(C)(C)OC(=O)N[C@H](Cc1ccc(NC(=O)c2csc(NC(=O)NCc3ccccc3)n2)cc1)C(=O)O [Example 166, (R)-3-[4-[[2-(3-benzyl-ureido)-thiazole-4-carbonyl]-amino]-phenyl]-2-tert-butoxycarbonylamino-propionic acid] | 232
CC(C)(C)OC(=O)C[C@H](NC(=O)CNC(=O)c1csc(NC(=O)NCc2ccccn2)n1)C(=O)NCc1ccccn1 [Example 167, tert-butyl (S)-N-pyridin-2-ylmethyl-3-(2-{[2-(3-pyridin-2-ylmethyl-ureido)-thiazole-4-carbonyl]-amino}-acetylamino)-succinamate] | 112
O=C(O)C[C@H](NC(=O)CNC(=O)c1csc(NC(=O)NCc2ccccn2)n1)C(=O)NCc1ccccn1 [Example 168, (S)-N-pyridin-2-ylmethyl-3-(2-{[2-(3-pyridin-2-ylmethyl-ureido)-thiazole-4-carbonyl]-amino}-acetylamino)-succinamic acid] | 164
CC(C)(C)OC(=O)CCNC(=O)c1cccc(NC(=O)c2csc(NC(=O)NCc3ccccc3)n2)c1 [Example 169, tert-butyl 3-(3-{[2-(3-benzyl-ureido)-thiazole-4-carbonyl]-amino}-benzoylamino)-propionate] | 212

Now from value to compound:

melting point [°C] | SMILES
194 | CCOC(=O)CCc1ccc(NC(=O)c2csc(NC(=O)NCc3ccccc3)n2)cc1 [Example 153, ethyl 3-[4-[[2-(3-benzyl-ureido)-thiazole-4-carbonyl]-amino]-phenyl]-propionate]
233 | O=C(O)CCc1ccc(NC(=O)c2csc(NC(=O)NCc3ccccc3)n2)cc1 [Example 154, 3-[4-[[2-(3-benzyl-ureido)-thiazole-4-carbonyl]-amino]-phenyl]-propionic acid]
157 | O=C(O)CCNC(=O)c1cccc(NC(=O)c2csc(NC(=O)NCc3ccccc3)n2)c1 [Example 170, 3-(3-{[2-(3-benzyl-ureido)-thiazole-4-carbonyl]-amino}-benzoylamino)-propionic acid]
